Experimental data published in patent publication US8512961B2, “Methods of detecting and treatment of cancers using Scutellaria barbata extract” (Bionovo, Inc., priority 2007, dated 2013).

Assays:
DNA = DNA damage, comet formation; type: cell-based; conditions: for effect on comet formation induced by BZL101: cells pretreated prior to the addition of BZL101
From the text: There is a different fold increase of ROS levels in different cells treated with BZL101 compared to control untreated cells. It is of particular interest that the increase in ROS correlates well with the degree of DNA damage induced in these cells.
To further implicate ROS in the induction of DNA damage, comet formation in cells pretreated with the antioxidants NAC and pyruvate prior to the addition of BZL101 were examined.

SKBr3 cells = assay: 8-oxoguanine, flow cytometry with avidin fluorescein; type: cell-based, human; conditions: cells pretreated prior to addition of BZL101
Protocol: To verify that BZL101 leads to oxidative DNA damage, it was determined whether the DNA of BZL101-treated cells contains 8-oxoguanine, the most ubiquitous marker of DNA oxidation. […] (See FIG. 9). […] (See FIG. 10). Analysis of the 8-oxoguanidine and apurininc/apyrimidinic (AP) bases in DNA. The Calbiochem kit was used for staining of the fixed and permeabilized cells with avidin fluorescein. Quantification of apurinic/[…] nucleotides in genomic DNA was performed using the DNA damage quantification kit from BioVision Research Products.

ROS = ROS generation, staining with ROS-sensitive probe CM-H2DCFDA; type: cell-based; conditions: incubation of cells prior to addition of BZL101; SKBr3 cells

SMILES: CC1(C)N([O])C(c2ccccc2)=[N+]([O-])C1(C)C [PTIO]
- effect on comet formation induced by BZL101 (DNA): no effect

SMILES: CC(=O)N[C@@H](CS)C(=O)O [NAC, N-acetyl-cysteine]
- effect on comet formation induced by BZL101 (DNA): significantly reduced the number of cells forming comets
- DNA damage repair in cancer cells (DNA; in the presence of the antioxidant, BZL101-treated cancer cells): greatly accelerated
- effect on BZL101-induced increase in avidin binding (8-oxoguanine) (SKBr3 cells): completely abolished
- effect on BZL101-induced ROS generation (ROS): prevented most of the increase in ROS generation
